This is an account of results in patent publication US20250376445A1, “COMPOUNDS AND METHODS FOR YAP/TEAD MODULATION AND INDICATIONS THEREFOR” (OPNA BIO SA, priority 2023, published 2025).

Usually IC50 stands for the point on the concentration scale where inhibition reaches its midpoint.

The test system of one assay is TEAD-dependent transcription. In words: TEAD-dependent transcription cell-based reporter assay (MSTO-211H+12XGTIIC luciferase). More on the design: species or system human. The following applies: Homo sapiens; MSTO-211H+12XGTIIC reporter cells, 24 hours compound incubation, luminescence normalized to viability; read-out: MSTO-211H GMean IC50 (uM) Cell Assay Reporter Cell Variant: TEAD. An excerpt:
The human mesothelioma cell line MSTO-211H was stably transfected with a pGL4.21 plasmid containing a synthetic promoter with 12 copies of the GTIIC TEAD response element that drives the expression of a luciferase reporter gene^1 using Lipofectamine transfection reagent (Thermo Fisher). Transfected cells were selected using puromycin and single cell clones expressing this construct (referred to as MSTO-211H+12XGTIIC) were generated by limiting dilution. MSTO-211H cells was characterized by genetic alterations in key components of the Hippo pathway^2, resulting in up-regulation of YAP/TEAD-mediated transcription. […] To evaluate TEAD inhibitors, the MSTO-211H+12XGTIIC cell line was seeded in a 96-well plate in 50 μL of culture media at 1×10^4 cells per well and incubated at 37° C. overnight. Serial dilutions of compounds (in total volume of 50 μL of culture media) were added to the cells and incubated at 37° C. for 24 hours. Each plate included cells treated with DMSO as high controls and cells treated with 20 μM of the reference compound K-975 (a known TEAD inhibitor)^3 as low controls. Cell viability was assayed by the addition of 25 μL of CellTiter-Fluor reagent (Promega) followed by a 30-minute incubation at 37° C. and quantification of the fluorescence signal (Ex400/Em505). Subsequently, luciferase expression was assayed by the addition of 25 μL of ONE-Glo reagent (Promega) followed by a 10-minute incubation at room temperature and quantification of the luminescence signal. The luminescence signal was normalized to the fluorescence signal to correct for any loss in cell viability over the 24-hour compound incubation period. The percentage of inhibition of normalized luminescence signal, indicative of compound-mediated inhibition of TEAD-dependent transcription, at individual compound concentrations relative to high and low controls was calculated. The data were analyzed by using nonlinear regression to generate IC50 values for individual compounds.
A general note: A reporter such as luciferase makes a cellular process visible.
`O=C(c1ccc(C(F)(F)F)cc1)c1ccc2c(c1)CN(C(=O)CCS(=O)(=O)C(F)(F)F)CC2` [O-0065, 1-(7-(4-(trifluoromethyl)benzoyl)-3,4-dihydroisoquinolin-2(1H)-yl)-3-((trifluoromethyl)sulfonyl)propan-1-one]: the IC50 lay in the range of 0.001 to 10 µM. In the case of `O=C(c1ccc(C(F)(F)F)cc1)c1cccc2c1CCN(C(=O)Cc1cocn1)C2` [O-0067, 2-(oxazol-4-yl)-1-(5-(4-(trifluoromethyl)benzoyl)-3,4-dihydroisoquinolin-2(1H)-yl)ethan-1-one], the IC50 is 0.001 to 10 µM. For `O=C(Cc1c[nH]cn1)N1CCc2c(cccc2C(F)c2ccc(C(F)(F)F)cc2)C1` (stereo not drawn) [O-0068, 1-(5-(fluoro(4-(trifluoromethyl)phenyl)methyl)-3,4-dihydroisoquinolin-2(1H)-yl)-2-(1H-imidazol-4-yl)ethan-1-one], the IC50 was 0.001 to 10 µM.

Consider `Nc1nc2ccc(C(=O)N3CCc4c(cccc4C(=O)c4ccc(C(F)(F)F)cc4)C3)cc2[nH]1` [O-0069, (2-amino-1H-benzo[d]imidazol-6-yl)(5-(4-(trifluoromethyl)benzoyl)-3,4-dihydroisoquinolin-2(1H)-yl)methanone], for which the IC50 was 0.001 to 10 µM. With `O=C(c1cccc2sc(C(F)(F)F)nc12)N1CCc2c(cccc2C(F)c2ccc(C(F)(F)F)cc2)C1` (stereo not drawn) [O-0070, (5-(fluoro(4-(trifluoromethyl)phenyl)methyl)-3,4-dihydroisoquinolin-2(1H)-yl)(2-(trifluoromethyl)benzo[d]thiazol-4-yl)methanone], the IC50 fell in the range of 0.001 to 10 µM. The same measure, in the same setting: next, `O=C(c1ccc(C(F)(F)F)cc1)c1cccc2c1CCN(C(=O)Cc1ncc[nH]1)C2` [O-0071, 2-(1H-imidazol-2-yl)-1-(5-(4-(trifluoromethyl)benzoyl)-3,4-dihydroisoquinolin-2(1H)-yl)ethan-1-one]: 0.001 to 10 µM; `O=C(c1ccc(C(F)(F)F)cc1)c1cccc2c1CCN(C(=O)c1ncc(C(F)(F)F)[nH]1)C2` [O-0072, (5-(trifluoromethyl)-1H-imidazol-2-yl)(5-(4-(trifluoromethyl)benzoyl)-3,4-dihydroisoquinolin-2(1H)-yl)methanone]: 0.001 to 10 µM. Consider `O=C(c1ccc(C(F)(F)F)cc1)c1cccc2c1CCN(C(=O)c1ccc3nc(C(F)(F)F)[nH]c3c1)C2` [O-0073, (2-(trifluoromethyl)-1H-benzo[d]imidazol-6-yl)(5-(4-(trifluoromethyl)benzoyl)-3,4-dihydroisoquinolin-2(1H)-yl)methanone], for which the IC50 fell in the range of 0.001 to 10 µM. The same measure, in the same setting: next, `O=C(c1ccc(C(F)(F)F)cc1)c1cccc2c1CCN(C(=O)c1ccc3nc[nH]c3c1)C2` [O-0074, (2-(1H-benzo[d]imidazole-6-carbonyl)-1,2,3,4-tetrahydroisoquinolin-5-yl)(4-(trifluoromethyl)phenyl)methanone]: 0.001 to 10 µM; `O=C(c1ccc(C(F)(F)F)cc1)c1cccc2c1CCN(C(=O)c1ccc3[nH]ccc3c1)C2` [O-0075, (2-(1H-indole-5-carbonyl)-1,2,3,4-tetrahydroisoquinolin-5-yl)(4-(trifluoromethyl)phenyl)methanone]: 0.001 to 10 µM. Still for that read-out and setting: next, `O=C(c1ccc(C(F)(F)F)cc1)c1cccc2c1CCN(C(=O)Cc1cscn1)C2` [O-0076, 2-(thiazol-4-yl)-1-(5-(4-(trifluoromethyl)benzoyl)-3,4-dihydroisoquinolin-2(1H)-yl)ethan-1-one]: 0.001 to 10 µM. Same read-out and setting: next, `CS(=O)(=O)CCC(=O)N1CCc2c(cccc2C(F)c2ccc(C(F)(F)F)cc2)C1` (stereo not drawn) [O-0077, 1-(5-(fluoro(4-(trifluoromethyl)phenyl)methyl)-3,4-dihydroisoquinolin-2(1H)-yl)-3-(methylsulfonyl)propan-1-one]: 0.001 to 10 µM. In the case of `COC(c1ccc(C(F)(F)F)cc1)c1cccc2c1CCN(C(=O)CCS(C)(=O)=O)C2` (stereo not drawn) [O-0078, 1-(5-(methoxy(4-(trifluoromethyl)phenyl)methyl)-3,4-dihydroisoquinolin-2(1H)-yl)-3-(methylsulfonyl)propan-1-one], the half-inhibitory concentration (IC50) was in the range of 0.001 to 10 µM. On the same count and under the same terms, next, `O=C(Cc1cscn1)N1CCc2c(Cc3ccc(C(F)(F)F)cc3)cccc2C1` [O-0079, 2-(thiazol-4-yl)-1-(5-(4-(trifluoromethyl)benzyl)-3,4-dihydroisoquinolin-2(1H)-yl)ethan-1-one]: 0.001 to 10 µM; `O=C(Cc1c[nH]cn1)N1CCc2c(Cc3ccc(C(F)(F)F)cc3)cccc2C1` [O-0080, 2-(1H-imidazol-4-yl)-1-(5-(4-(trifluoromethyl)benzyl)-3,4-dihydroisoquinolin-2(1H)-yl)ethan-1-one]: 0.001 to 10 µM; `CS(=O)(=O)CCC(=O)N1CCc2c(cccc2C(=O)c2ccc(C(F)(F)F)cc2)C1` [O-0081, 3-(methylsulfonyl)-1-(5-(4-(trifluoromethyl)benzoyl)-3,4-dihydroisoquinolin-2(1H)-yl)propan-1-one]: 0.001 to 10 µM.

Regarding `CS(=O)(=O)CCC(=O)N1CCc2c(cccc2C(O)c2ccc(C(F)(F)F)cc2)C1` (stereo not drawn) [O-0082, 1-(5-(hydroxy(4-(trifluoromethyl)phenyl)methyl)-3,4-dihydroisoquinolin-2(1H)-yl)-3-(methylsulfonyl)propan-1-one], the IC50 was 0.001 to 10 µM.

Consider `C=CC(=O)N1CCc2cc(-c3ccc(C(F)(F)F)cc3)ccc2C1` [O-0110, 1-(6-(4-(trifluoromethyl)phenyl)-3,4-dihydroisoquinolin-2(1H)-yl)prop-2-en-1-one], for which the IC50 was in the range of 0.001 to 10 µM. On to `C=CS(=O)(=O)N1CCc2cc(-c3ccc(C(F)(F)F)cc3)ccc2C1` [O-0111, 6-(4-(trifluoromethyl)phenyl)-2-(vinylsulfonyl)-1,2,3,4-tetrahydroisoquinoline], for which the IC50 was in the range of 0.001 to 10 µM.

In the case of `C=CC(=O)N1CCc2ccc(-c3ccc(C(F)(F)F)cc3)cc2C1` [O-0113, 1-(7-(4-(trifluoromethyl)phenyl)-3,4-dihydroisoquinolin-2(1H)-yl)prop-2-en-1-one], the IC50 was 0.001 to 10 µM. The same measure, in the same setting: next, `C=CS(=O)(=O)N1CCc2ccc(-c3ccc(C(F)(F)F)cc3)cc2C1` [O-0114, 7-(4-(trifluoromethyl)phenyl)-2-(vinylsulfonyl)-1,2,3,4-tetrahydroisoquinoline]: 0.001 to 10 µM; `C=CC(=O)N1CCc2c(cccc2-c2ccc(C(F)(F)F)cc2)C1` [O-0116, 1-(5-(4-(trifluoromethyl)phenyl)-3,4-dihydroisoquinolin-2(1H)-yl)prop-2-en-1-one]: 0.001 to 10 µM; `C=CS(=O)(=O)N1CCc2c(cccc2-c2ccc(C(F)(F)F)cc2)C1` [O-0117, 5-(4-(trifluoromethyl)phenyl)-2-(vinylsulfonyl)-1,2,3,4-tetrahydroisoquinoline]: 0.001 to 10 µM. The same measure, in the same setting: next, `O=C(CCS(=O)(=O)C(F)(F)F)N1CCc2cc(-c3ccc(C(F)(F)F)cc3)ccc2C1` [O-0128, 1-(6-(4-(trifluoromethyl)phenyl)-3,4-dihydroisoquinolin-2(1H)-yl)-3-((trifluoromethyl)sulfonyl)propan-1-one]: 0.001 to 10 µM.

`O=C(CCS(=O)(=O)C(F)(F)F)N1CCc2cc(-c3ccc(C(F)(F)F)c(F)c3)ccc2C1` [O-0130, 1-(6-(3-fluoro-4-(trifluoromethyl)phenyl)-3,4-dihydroisoquinolin-2(1H)-yl)-3-((trifluoromethyl)sulfonyl)propan-1-one]: the half-inhibitory concentration (IC50) lay in the range of 0.001 to 10 µM.

Consider `C[C@@H](Nc1ccccn1)C(=O)N1CCc2c(cccc2-c2ccc(C(F)(F)F)cc2)C1` [O-0131, (R)-2-(pyridin-2-ylamino)-1-(5-(4-(trifluoromethyl)phenyl)-3,4-dihydroisoquinolin-2(1H)-yl)propan-1-one], for which the IC50 lay within 0.001 to 10 µM. With `C[C@@H](NC(=O)c1cccc(N)n1)C(=O)N1CCc2c(cccc2-c2ccc(C(F)(F)F)cc2)C1` [O-0132, (R)-6-amino-N-(1-oxo-1-(5-(4-(trifluoromethyl)phenyl)-3,4-dihydroisoquinolin-2(1H)-yl)propan-2-yl)picolinamide], the IC50 is 0.001 to 10 µM. In the case of `C[C@@H](NC(=O)c1cccc(N)n1)C(=O)N1CCc2ccc(-c3ccc(C(F)(F)F)cc3)cc2C1` [O-0133, (R)-6-amino-N-(1-oxo-(7-(4-(trifluoromethyl)phenyl)-3,4-dihydroisoquinolin-2(1H)-yl)propan-2-yl)picolinamide], the IC50 was in the range of 0.001 to 10 µM. Still for that read-out and setting: next, `CC(C)C[C@@H](NS(C)(=O)=O)C(=O)N1CCc2c(cccc2-c2ccc(C(F)(F)F)cc2)C1` [O-0139, (R)-N-(4-methyl-1-oxo-1-(5-(4-(trifluoromethyl)phenyl)-3,4-dihydroisoquinolin-2(1H)-yl)pentan-2-yl)methanesulfonamide]: 0.001 to 10 µM.

The same assay, now with this note: MSTO-211H+12XGTIIC reporter cells, 24 hours compound incubation, luminescence normalized to viability; read-out: MSTO-211H GMean IC50 (uM) Cell Assay Reporter Cell Variant: TEAD.
Take `O=C(CCS(=O)(=O)C(F)(F)F)N1CCc2c(cccc2C(F)c2ccc(C(F)(F)F)nc2)C1` (stereo not drawn) [O-0066, 1-(5-{fluoro[6-(trifluoromethyl)-3-pyridyl]methyl}-1,2,3,4-tetrahydro-2-isoquinolyl)-3-(trifluoromesyl)-1-propanone]: the IC50 was in the range of 0.001 to 10 µM.
